In US9637490B2, “Antifungal 5,6-dihydro-4-[(difluoroethyl)phenyl]-4H-pyrrolo[1,2-α][1,4]benzodiazepine and 4-(difluoroethyl)phenyl-6H-pyrrolo[1,2-α][1,4]benzodiazepine derivatives” (Janssen Pharmaceutica NV, priority 2010, dated 2017):

Experiments:
[1] = test system: Sporothrix schenkii B62482; assay: Antifungal activity in vitro (resazurin susceptibility screen), Inf. A; format: cell-based; conditions: 27 °C, 4 days, resa time 24 hours; for pIC50 Inf. A: Sporothrix schenkii B62482; for IC50: Sporothrix, B62482, Sporothrix schenkii B62482
Method: (§1) The standard susceptibility screen was performed in 96-well plates (U-bottom, Greiner Bio-One). Serial dilutions (2-fold or 4-fold) of 20 mM compound stock solutions were made in 100% DMSO, followed by an intermediate dilution step in water. These serial dilutions (10 μl) were then spotted onto test-plates that could be stored in the dark at 4° C. for a maximum period of 2 weeks. An adequate broad dose-range was included with 64 μM as the highest in-test concentration. The culture medium RPMI-1640 was supplemented with L-glutamine, 2% glucose and buffered with 3-(N-morpholino)-propanesulfonic acid (MOPS) at pH 7.0±0.1. The different fungal species/isolates (Table 3a) were cryopreserved and 1/1000 diluted in medium just prior to use. A standard inoculum of 200 μl containing 10^3 colony-forming unit (cfu) was then added to each well. A positive control (100% growth=fungal culture without antifungal) and a negative control (0% growth=RPMI-MOPS medium) were included on each plate. Optimal incubation time and temperature were dependent on the fungal species and vary from 24 h for yeasts (37° C.) to one week or more for dermatophytes (27° C.). Inhibition of fungal growth was measured after adding 10 μl of 0.005% (w/v) resazurin (Sigma Aldrich) to each well, based on the principle that living cells convert the non-fluorescent blue resazurin into the pink and fluorescent resorufin, allowing fluorimetric reading (λhd ex 550 nm and μem 590 nm) after an additional incubation period (‘resa’ time mentioned in Table 3a). [table]

Microsporum canis B68128 = assay: Antifungal activity in vitro (resazurin susceptibility screen), Inf. B; format: cell-based; conditions: 27 °C, 9 days, resa time 24 hours; for pIC50 Inf. B: Microsporum canis B68128; for IC50: Microsporum canis, B68128, Microsporum canis B68128
Method: as §1

[2] = test system: Trichophyton rubrum B68183; assay: Antifungal activity in vitro (resazurin susceptibility screen), Inf. C; format: cell-based; conditions: 27 °C, 7 days, resa time 24 hours; for pIC50 Inf. C: Trichophyton rubrum B68183; for IC50: Trichophyton rubrum, B68183, Trichophyton rubrum B68183
Method: as §1

[3] = test system: Candida parapsilosis B66126; assay: Antifungal activity in vitro (resazurin susceptibility screen), Inf. D; format: cell-based; conditions: 37 °C, 24 hours, resa time 4 hours; for pIC50 Inf. D: Candida parapsilosis B66126; for IC50: Lodderomyces parapsilosis, B66126, Candida parapsilosis B66126
Method: as §1

[4] = test system: Aspergillus fumigatus B42928; assay: Antifungal activity in vitro (resazurin susceptibility screen), Inf. E; format: cell-based; conditions: 27 °C, 48 hours, resa time 17 hours; for pIC50 Inf. E: Aspergillus fumigatus B42928; for IC50: Aspergillus fumigatus, B42928, Aspergillus fumigatus B42928
Method: as §1

[5] = test system: Cryptococcus neoformans B66663; assay: Antifungal activity in vitro (resazurin susceptibility screen), Inf. F; format: cell-based; conditions: 37 °C, 24 hours, resa time 4 hours; for pIC50 Inf. F: Cryptococcus neoformans B66663; for IC50: Cryptococcus neoformans, B66663, Cryptococcus neoformans B66663
Method: as §1

[6] = test system: Trichophyton mentagrophytes B70554; assay: Antifungal activity in vitro (resazurin susceptibility screen), Inf. G; format: cell-based; conditions: 27 °C, 7 days, resa time 24 hours; for pIC50 Inf. G: Trichophyton mentagrophytes B70554; for IC50: Trichophyton mentagrophytes, B70554, Trichophyton mentagrophytes B70554
Method: as §1

[7] = test system: Microsporum canis (strain B68128); assay: Test D.4.1: activity against M. canis in guinea-pigs after oral treatment for 7 consecutive days; format: in vivo; parameters: key to semi-quantitative lesion score (mean): lesion score 0–3.5 by severity and size of lesion; conditions: oral 10 mg/kg once daily for 7 days
Method: The animals used in the tests described below were female Guinea pigs (Duncan-Hartley, Charles River, 200 g). These animals were kept in groups of 2 or 3 in cages of 56×33×20 cm^3. Food pellets (Carfil Quality) and water were available ad libitum in addition to a small daily amount of hay. Standard husbandry conditions were adopted: room temperature: 22° C., humidity level: 60% and a day-night cycle of 12 h.
For the preparation of inoculums, Microsporum canis (strain B68128) was grown on Sabouraud Dextrose Agar (SDA) plates for at least one week (7-10 days) before infection (27° C.). On the day of infection, spores were harvested by adding 4-5 ml sterile water on the plate and suspending the infectious material with a bend Pasteur pipette. From the recollected fluid, 10 μl was added to a KOVA counting chamber for determination of the number of spores in 1 square (average of several squares). If needed, additional dilutions (10× or 100×) were prepared. The average number of spores in one square×dilution×90.000=cfu/ml. An inoculum of 1×10^7 cfu/ml was prepared in a honey-water mixture (50%-50%).
In the tests described below, semi-quantitative lesion scores were given based on different clinical parameters. Scores between 0 and 3.5 were assigned based on the severity and size of the lesion. The criteria are listed in detail in Table 6.
The dorsum of the guinea pigs was shaved and further depilated for 3 minutes with Veet® creme before scarification with a steel brush. An inoculum of 10^6 cfu in 150 μl (75 mQ+75 μl honey) was applied to the wound using a micropipette with disposable tips. The animal was kept immobilized until the inoculum had completely dried. […]
vehicle: methocel 0.5%, Tween 80® (polysorbate 80), demineralised water reference compound: itraconazole at 6.25 mg/ml test compounds: prepared at 25 mg/ml, subsequently further diluted
Oral treatment (gavage 0.16 ml/100 g once daily) was started about 2 hours before infection and continued once daily for 7 consecutive days. The animals were weighed after 3 days of treatment to adjust for the dose.
Developments of lesions were evaluated following the semi-quantitative lesion scoring system (see Table 6) on days 3, 5, 7, 10, 12, 14, 17 and 20. The results are show in Table 7 (“DPI” means days post infection). Reported values in Table 7 are mean values.

IC50 [1]	IC50 (Microsporum canis B68128)	IC50 [2]	IC50 [3]	IC50 [4]	IC50 [5]	IC50 [6]	Compound	pIC50 Inf. A [1]	pIC50 Inf. B (Microsporum canis B68128)	pIC50 Inf. C [2]	pIC50 Inf. D [3]	pIC50 Inf. E [4]	pIC50 Inf. F [5]	pIC50 Inf. G [6]	other results
–	–	–	–	–	–	–	CC(F)(F)c1ccc(C2NCc3cc(Cl)cc(Cl)c3-n3cccc32)cc1.Cl (stereo not drawn) [Compound 5, 8,10-dichloro-4-[4-(1,1-difluoroethyl)phenyl]-5,6-dihydro-4H-pyrrolo[1,2-a][1,4]-benzodiazepine.HCl]	<4.19	<4.19	4.22	<4.19	<4.19	4.46	<4.19	–
–	–	–	–	–	–	–	CC(F)(F)c1ccc(C2NCc3c(ccc(Cl)c3Cl)-n3cccc32)cc1.Cl (stereo not drawn) [Compound 7, 7,8-dichloro-4-[4-(1,1-difluoroethyl)phenyl]-5,6-dihydro-4H-pyrrolo[1,2-a][1,4]-benzodiazepine.HCl]	<4.19	5.40	5.40	<4.19	<4.19	<4.19	<4.19	–
> 64.6 µM	> 64.6 µM	> 64.6 µM	> 64.6 µM	> 64.6 µM	> 64.6 µM	> 64.6 µM	CC(F)(F)c1ccc(C2=NCc3c(ccc(Cl)c3Cl)-n3cccc32)cc1 [Compound 10, 7,8-dichloro-4-[4-(1,1-difluoroethyl)phenyl]-6H-pyrrolo[1,2-a][1,4]benzodiazepine]	–	–	–	–	–	–	–	–
–	–	–	–	–	–	–	CC(F)(F)c1ccc(C2NCc3c(Cl)ccc(Cl)c3-n3cccc32)cc1.Cl (stereo not drawn) [Compound 11, 7,10-dichloro-4-[4-(1,1-difluoroethyl)phenyl]-5,6-dihydro-4H-pyrrolo[1,2-a][1,4]-benzodiazepine.HCl]	<4.19	<4.19	4.86	<4.19	<4.19	<4.19	<4.19	–
–	–	–	–	–	–	–	CC(F)(F)c1ccc(C2NCc3c(Cl)cc(Cl)cc3-n3cccc32)cc1.Cl (stereo not drawn) [Compound 13, 7,9-dichloro-4-[4-(1,1-difluoroethyl)phenyl]-5,6-dihydro-4H-pyrrolo[1,2-a][1,4]-benzodiazepine.HCl]	<4.19	4.23	5.70	<4.19	4.81	<4.19	5.14	–
7.94 µM	8.13 µM	7.94 µM	2.95 µM	7.94 µM	5.75 µM	8.13 µM	CC(F)(F)c1cc(C2=NCc3ccc(Cl)cc3-n3cccc32)ccc1F [Compound 34, 9-chloro-4-[3-(1,1-difluoroethyl)-4-fluorophenyl]-6H-pyrrolo[1,2-a][1,4]benzodiazepine]	–	–	–	–	–	–	–	–
4.27 µM	0.525 µM	0.302 µM	14.8 µM	1.45 µM	0.525 µM	1.58 µM	CC(F)(F)c1cc(C2=NCc3cccc(Cl)c3-n3cccc32)ccc1F [Compound 35, 10-chloro-4-[3-(1,1-difluoroethyl)-4-fluorophenyl]-6H-pyrrolo[1,2-a][1,4]-benzodiazepine]	–	–	–	–	–	–	–	–
–	–	–	–	–	–	–	CCC(C)n1ncn(-c2ccc(N3CCN(c4ccc(OCC5COC(Cn6cncn6)(c6ccc(Cl)cc6Cl)O5)cc4)CC3)cc2)c1=O (stereo not drawn) [Itraconazole, reference compound]	–	–	–	–	–	–	–	semi-quantitative lesion score (mean) ([7]; 3 DPI): 0; semi-quantitative lesion score (mean) ([7]; 5 DPI): 0; semi-quantitative lesion score (mean) ([7]; 7 DPI): 0; semi-quantitative lesion score (mean) ([7]; 10 DPI): 0; semi-quantitative lesion score (mean) ([7]; 12 DPI): 0; semi-quantitative lesion score (mean) ([7]; 14 DPI): 0; semi-quantitative lesion score (mean) ([7]; 17 DPI): 0; semi-quantitative lesion score (mean) ([7]; 20 DPI): 0
